Experimental data taken from patent publication US8927760B2, “Colchicine derivatives or pharmaceutically acceptable salts thereof, method for preparing said derivatives, and pharmaceutical composition comprising said derivatives” (priority 2010, dated 2015).
Where “and” joins values, the source holds several entries; their conditions need not be identical. Equal entries are not always repeated. Entries after “also recorded” stand apart in the source; their conditions may differ.

Columns and labels:
[1] = test system: Wistar rat (recipient) with transplanted Lewis rat heart; assay: Allogeneic heart transplantation (abdominal heterotopic, Lewis donor to Wistar recipient); assay type: in vivo
Protocol: Hearts of 8-week-old Lewis rats (donor) weighing about 250 g were extracted and performed abdominal heterotopic heart transplantation into the abdominal cavity of 8-week-old Wistar rat (recipient) weight about 300 g by cross-clamping caudal vena cava and the abdominal aorta of recipient both proximally and distally to the anastomotic site.
The heart rate of each rat in an untreated control group and the experimental groups was measured by abdominal palpation from the date of the heart transplant, and the heart rate was classified as ++++ (strong and fast heartbeat), +++ (strong or fast heartbeat), ++ (faint and slow but distinct heartbeat), + (faint but steady heartbeat), and ±0 (intermittent heartbeat).

[2] = test system: streptozotocin induced diabetic Fischer 344 rats with transplanted Lewis rat islet cells; assay: Allogeneic pancreatic islet cell transplantation - single intraperitoneal administration; assay type: in vivo
Protocol: (§1) Streptozotocin is a drug that destroys pancreatic islet cells to induce diabetes and is used to create experimental diabetic animal models. Allogeneic islets were transplanted into the livers of streptozotocin induced diabetic rat by injection into the portal vein. The functioning of transplanted islets was assessed by daily measurements of blood glucose levels. Islets were considered rejected when the blood glucose level was 200 mg/dl on two consecutive days.
(§2) 35 mg/kg of streptozotocin (50 mg/mL) dissolved in a 0.1 M citrate buffer solution (pH 4.5) was intraperitoneally injected into 8-week-old male Fischer 344 rats (F344) weighing about 200 to 220 g. Then, the blood glucose level was measured after 1 week, and the first day when the blood glucose level increased over 300 mg/dl and the increase was repeated more than twice was considered as the date of diagnosis of diabetes. The rats were used in transplantation 3 weeks after the administration of streptozotocin.
(§3) Pancreases of 8-week-old male Lewis rats were extracted on the 3 weeks after the diabetes was induced in Fischer rats, and islet cells were isolated. The isolated islet cells were cultured in a CO2 incubator at 37° C. for a day, and the cultured islet cells were transplanted into the diabetic Fischer rats.
Cyclosporin (5 mg/kg), colchicine (10 μg/kg and 40 μg/kg), and colchicine derivative compounds (compounds 1, 7, 9, 14, 15, 17, 18, 22, and 23; 50 μg/kg) were administered to the Fischer rats, to which the islet cells were transplanted, for 14 days from the date of transplantation, and the maintenance of blood glucose levels was examined until rejection occurred from the date of transplantation.

[3] = test system: streptozotocin induced diabetic Fischer 344 rats with transplanted Lewis rat islet cells; assay: Allogeneic pancreatic islet cell transplantation - combined intraperitoneal administration; assay type: in vivo; conditions: for Average number of days for which islet cell function was maintained / Number of days for which islet cell function was maintained (individual rats): i.p. for 14 days
Protocol: as §1, §2, §3
However, considering the interaction between the two drugs, the two drugs were introduced in different syringes and injected to right and left sides of the abdominal cavity, respectively, and the measurement results are shown in the following table 4.

[4] = test system: spleen cells of rats; assay: Cytotoxicity test in rat spleen cells (CCK, absorbance at 450 nm); assay type: cell-based; conditions: 72 hours, at concentrations of 100 ng to 10000 ng/mL
Protocol: Cytotoxicity test was performed to determine the toxicity of immunosuppressant candidate materials by mixing the immunosuppressant candidate materials with spleen cells of rats in culture media and measuring the degree of toxicity in the cells. […] The concentrations of the drugs were 0.1, 1, 10, 100, 1000, 10000, and 100000 ng/mL. The cells were cultured in a CO2 incubator for 72 hours, and then each well was treated with 10 μl of CCK-SK (Dojindo, Japan). Subsequently, the cells were cultured again in the CO2 incubator for 4 hours, and then the absorbance (O.D. value) was measured at 450 nm using a spectrophotometer.

[5] = test system: streptozotocin induced diabetic Fischer 344 rats with transplanted Lewis rat islet cells; assay: Allogeneic pancreatic islet cell transplantation - continuous combined intraperitoneal administration; assay type: in vivo
Protocol: as §1, §2, §3

[6] = 10 μg/kg intravenously for 14 days
[7] = 40 μg/kg intravenously for 14 days
[8] = 40 μg/kg intravenously for 14 days, * = death
[9] = single administration, 10 μg/kg i.p. for 14 days
[10] = single administration, 40 μg/kg i.p. for 14 days
[11] = single administration, 40 μg/kg i.p. for 14 days, * = death
[12] = 10 μg/kg combined with CsA (5 mg/kg)
[13] = single administration, 50 μg/kg i.p. for 14 days
[14] = 50 μg/kg combined with CsA (5 mg/kg)
[15] = CsA (5 mg/kg) & Compound 14 (40 μg/kg) for 2 weeks, then continuously injected
[16] = CsA (5 mg/kg) & Compound 14 (500 μg/kg) for 2 weeks, then continuously injected
[17] = CsA (5 mg/kg) & Compound 14 (500 μg/kg) for 2 weeks, then only CsA (5 mg/kg)
[18] = CsA (5 mg/kg) & Compound 14 (500 μg/kg) for 2 weeks, then only compound 14 (500 μg/kg)
[19] = CsA (5 mg/kg) & Compound 14 (500 μg/kg) injected for 2 weeks

SMILES: COc1cc2c(c(OC)c1OC)-c1ccc(OC)c(=O)cc1[C@@H](NC(C)=O)CC2 [Colchicine, colchicine]
- Average number of days for which heart rate was kept [1, 6]: >70 ± 100.5 days
- Number of days for which heart rate was kept (individual rats) [1, 6]: 12 day (2×) and > 186 day
- Number of days for which heart rate was kept (individual rats) ([1]; 10 μg/kg intravenously for 14 days, listed as colchicine): 12 day and over 186 day
- Average number of days for which heart rate was kept [1, 7]: >73.3 ± 85.4 days
- Number of days for which heart rate was kept (individual rats) [1, 8]: 13 days and 14 days and > 32 days and > 187 days
- Number of days for which heart rate was kept (individual rats) ([1]; 40 μg/kg intravenously for 14 days, * = death, listed as colchicine): 13 day and 14 day and over 187 day
- death of rats ([2]; 40 μg/kg alone, four rats, listed as colchicines): two of the four rats were dead; also recorded: one rat was dead suddenly after 9 days
- weight reduction ([2]; 40 μg/kg alone, on the second day, the two rats that died): 15%
- difference from the control group in maintenance of blood glucose levels ([2]; single administration): no significant differences from the control group
- Average number of days for which islet cell function was maintained [2, 9]: 5 days
- Number of days for which islet cell function was maintained (individual rats) [2, 9]: 5, 5 day
- Average number of days for which islet cell function was maintained [2, 10]: 6 days
- Number of days for which islet cell function was maintained (individual rats) [2, 11]: 2 day (2×) and 6 day and 9 day
- Number of days for which islet cell function was maintained (individual rats) ([2]; single administration, 40 μg/kg i.p. for 14 days, * = death, listed as colchicines): 6 days
- Average number of days for which islet cell function was maintained [3, 12]: 8 days
- Average number of days for which islet cell function was maintained ([3]; 10 μg/kg combined with CsA (5 mg/kg), listed as colchicine): 8 days
- increase of days of islet cell function compared to the single administration ([3]; 10 μg/kg combined with cyclosporin A (5 mg/kg)): about 3 days

SMILES: COc1cc2c(c(OC)c1OC)-c1ccc(OC)c(=O)cc1C(NC(=O)OCc1ccc(C(C)C)cc1)CC2 (centres unmarked) [Compound 9, (1,2,3,10-tetramethoxy-9-oxo-5,6,7,9-tetrahydro-benzo[a]heptalen-7-yl)-carbamic acid 4-isopropyl benzyl ester]
- cytotoxicity [4]: no cytotoxicity
- Average number of days for which islet cell function was maintained [2, 13]: 5.7 ± 0.58 days
- Number of days for which islet cell function was maintained (individual rats) [2, 13]: 5 days to days and 5 day and 6 day
- Average number of days for which islet cell function was maintained [3, 14]: >55.7 days

SMILES: COc1cc2c(c(OC)c1OC)-c1ccc(OC)c(=O)cc1C(NC(=O)OCC1c3ccccc3-c3ccccc31)CC2 (centres unmarked) [Compound 14, (1,2,3,10-tetramethoxy-9-oxo-5,6,7,9-tetrahydro-benzo[a]heptalen-7-yl)-carbamic acid 9H-fluoren-9-ylmethyl ester]
- cytotoxicity [4]: no cytotoxicity
- Average number of days for which heart rate was kept [1, 6]: >107 ± 86.6 days
- Number of days for which heart rate was kept (individual rats) [1, 6]: 9 day and over 139 day and over 173 day and > 139 day and > 173 day
- Average number of days for which heart rate was kept [1, 7]: >173.5 ± 0.7 days
- Number of days for which heart rate was kept (individual rats) [1, 8]: over 173 day and > 174 day and > 173 day
- Average number of days for which islet cell function was maintained [2, 9]: 5.5 ± 0.71 days
- Number of days for which islet cell function was maintained (individual rats) [2, 9]: 5, 5 day
- Average number of days for which islet cell function was maintained [2, 10]: 6.5 ± 0.71 days
- Number of days for which islet cell function was maintained (individual rats) [2, 11]: 6 days and 7 days
- Average number of days for which islet cell function was maintained [3, 12]: 28.7 days
- Average number of days for which islet cell function was maintained ([3]; 40 μg/kg combined with CsA (5 mg/kg)): >61.8 days
- Average number of days for which islet cell function was maintained [5, 15]: >63 ± 9.9 days
- Number of days for which islet cell function was maintained (individual rats) [5, 15]: 56 days and > 70 days
- Average number of days for which islet cell function was maintained [5, 16]: 67.7 ± 24.0 days
- Number of days for which islet cell function was maintained (individual rats) [5, 16]: 40 days and 81 days and 82 days
- Average number of days for which islet cell function was maintained [5, 17]: 48.5 ± 12.0 days
- Number of days for which islet cell function was maintained (individual rats) [5, 17]: 40 days and 57 days
- Average number of days for which islet cell function was maintained [5, 18]: 52.7 ± 52.3 days
- Number of days for which islet cell function was maintained (individual rats) [5, 18]: 20 days and 25 days and 113 days
- Average number of days for which islet cell function was maintained [5, 19]: 29 ± 3.61 days
- Number of days for which islet cell function was maintained (individual rats) [5, 19]: 25 days and 30 days and 32 days
- islet cell function improved, times compared to 2 weeks combined administration only ([5]; two drugs continuously administered together after combined administration for 2 weeks): about 2.3 times

SMILES: COc1cc2c(c(OC)c1OC)-c1ccc(OC)c(=O)cc1C(NC(=O)OCC1c3ccccc3-c3cccc(C)c31)CC2 (centres unmarked) [Compound 15, (1,2,3,10-tetramethoxy-9-oxo-5,6,7,9-tetrahydro-benzo[a]heptalen-7-yl)-carbamic acid 1-methyl-9H-fluoren-9-ylmethyl ester]
- cytotoxicity [4]: no cytotoxicity
- Average number of days for which islet cell function was maintained [3, 14]: 24 days
- Number of days for which islet cell function was maintained (individual rats) [3, 14]: 24, 24 day

SMILES: COc1cc2c(c(OC)c1OC)-c1ccc(OC)c(=O)cc1C(NC(=O)CC1c3ccccc3-c3ccccc31)CC2 (centres unmarked) [Compound 23, 2-(9H-fluoren-9-yl)-N-(1,2,3,10-tetramethoxy-9-oxo-5,6,7,9-tetrahydro-benzo[a]heptalen-7-yl)-acetamide]
- cytotoxicity [4]: no cytotoxicity
- Average number of days for which islet cell function was maintained [3, 14]: 26.5 days

SMILES: COc1cc2c(c(OC)c1OC)-c1ccc(OC)c(=O)cc1C(NC(=O)OCC1c3cc(C(C)(C)C)ccc3-c3ccc(C(C)(C)C)cc31)CC2 (centres unmarked) [Compound 17, (1,2,3,10-tetramethoxy-9-oxo-5,6,7,9-tetrahydro-benzo[a]heptalen-7-yl)-carbamic acid 2,7-di-tert-butyl-9H-fluoren-9-ylmethyl ester]
- cytotoxicity [4]: no cytotoxicity
- Average number of days for which islet cell function was maintained [3, 14]: 36.5 days

SMILES: COc1ccc(CCC(=O)NC2CCc3cc(OC)c(OC)c(OC)c3-c3ccc(OC)c(=O)cc32)cc1 (centres unmarked) [Compound 22, 3-(4-methoxy-phenyl)-N-(1,2,3,10-tetramethoxy-9-oxo-5,6,7,9-tetrahydro-benzo[a]heptalen-7-yl)-propionamide]
- cytotoxicity [4]: no cytotoxicity
- Average number of days for which islet cell function was maintained [3, 14]: 20.7 days

SMILES: COc1cc2c(c(OC)c1OC)-c1ccc(OC)c(=O)cc1C(NC(=O)OCCC1c3ccccc3-c3ccccc31)CC2 (centres unmarked) [Compound 18, (1,2,3,10-tetramethoxy-9-oxo-5,6,7,9-tetrahydro-benzo[a]heptalen-7-yl)-carbamic acid 2-(9H-fluoren-9-yl)-ethyl ester]
- cytotoxicity [4]: no cytotoxicity
- Average number of days for which islet cell function was maintained [3, 14]: 28 days

SMILES: COc1cc2c(c(OC)c1OC)-c1ccc(OC)c(=O)cc1C(NC(=O)OCc1ccccc1)CC2 (centres unmarked) [Compound 1, (1,2,3,10-tetramethoxy-9-oxo-5,6,7,9-tetrahydro-benzo[a]heptalen-7-yl)-carbamic acid benzyl ester]
- cytotoxicity [4]: no cytotoxicity
- Average number of days for which islet cell function was maintained [3, 14]: 27 days
- Number of days for which islet cell function was maintained (individual rats) [3, 14]: 27, 27 day

SMILES: COc1ccc(COC(=O)NC2CCc3cc(OC)c(OC)c(OC)c3-c3ccc(OC)c(=O)cc32)cc1 (centres unmarked) [Compound 7, (1,2,3,10-tetramethoxy-9-oxo-5,6,7,9-tetrahydro-benzo[a]heptalen-7-yl)-carbamic acid 4-methoxy benzyl ester]
- cytotoxicity [4]: no cytotoxicity
- Average number of days for which islet cell function was maintained [2, 13]: 5.7 ± 1.16 days
- Number of days for which islet cell function was maintained (individual rats) [2, 13]: 5 day (2×) and 7 day
- Average number of days for which islet cell function was maintained [3, 14]: >61.6 days
- Average number of days for which islet cell function was maintained ([3]; 100 μg/kg combined with CsA (5 mg/kg)): >72 days
